{
  "source": "paper PMC8221158",
  "about": "“Novel pyrrolizines bearing 3,4,5-trimethoxyphenyl moiety: design, synthesis, molecular docking, and biological evaluation as potential multi-target cytotoxic agents” (Journal of Enzyme Inhibition and Medicinal Chemistry, 2021)",
  "key": {"[1]": {"system": "normal MRC-5 cells", "test": "MTT assay, normal cells (cytotoxic selectivity)", "assay_type": "cell-based", "details": "Homo sapiens, MRC5, 72 h treatment, n = 3, read-out: IC50 (µM ± SD) MRC-5", "procedure": "MCF-7 (human breast adenocarcinoma), A2780 (human ovarian cancer) and HCT116 (human colorectal carcinoma), and MRC-5 (normal foetal lung fibroblast) cell lines were bought from the ATCC and were cultured in flasks which were incubated at 37 °C in an atmosphere of 5% CO2, 95% air, and 100% relative humidity, to maintain continuous logarithmic growth. MCF-7, A2780, and HCT116 were maintained in RPMI-1640 media (100 U/mL penicillin, 100 µg/mL streptomycin, and 10% foetal bovine serum, Gibco, Carlsbad, CA). MRC-5 cells were maintained in EMEM (100 U/mL penicillin, 100 µg/mL streptomycin, and 10% foetal bovine serum, Gibco, Carlsbad, CA). Doxorubicin (5 μg/mL, for three months) added for RPMI-1640 media containing MCF7 cells was used to develop doxorubicin-resistant MCF7/ADR cells. All cancer and normal cell lines were cultured according to our previous report. Cells were used within 10–20 passages and were checked for mycoplasma every 6 months, by measuring the bioluminescence (Myco Alert sample detection kit; Lonza, Basel, Switzerland) using the multiplate reader (Synergy HT, BioTek, Winooski, VT).\nThe MTT assay was used to measure the cytotoxicity and growth inhibitory activities and cytotoxicity of the new compounds according to our previous report[13]^,[17]. Cells from flasks of 70–80% confluency were separately seeded in 96-well flat-bottom microculture plates (Nalgene-Nunc, Thermo Fisher Scientific, Roskilde, Denmark) at a density of 3 × 10^3 cells (MCF-7, A2780, and MRC-5), 1 × 10^4 cells (HCT116), to a volume of 180 μL/well of culture medium. A Neubauer haemocytometer was used for cell counting. Cells were incubated at 37 °C overnight to allow attachment to the wells. The final concentrations of each compound in wells were: 0–50 μM in 200 μL of media (DMSO 0.1%). Lapatinib (Cayman, Ann Arbor, MI) was used as a positive control at the same final concentrations. Medium only (20 μL) was added to each control well, and each concentration was tested in triplicates (n = 3). Following incubation for 72 h, 50 μL MTT was added into each well. Plates were incubated for 3 h, the supernatant was aspirated, and 100 μL of DMSO was added to each well. The optical density (OD) of the purple formazan is proportional to the number of viable cells. […] GraphPad Prism version 5.00 for Windows was used for analysis (La Jolla, CA). Cytotoxicity of the new compounds was calculated after treatment of cancer/normal cell lines for 72 h. The absorbance of the reduced MTT was determined using a microplate reader A570 nm.\nSelectivity towards cancerous cells is one of the important issues which must be considered during the discovery and development of new anticancer agents. To assess the toxicity and selectivity of the new compounds (15a–e, 16a–e, 20, and 21), their growth inhibitory activities against normal human foetal lung fibroblast MRC-5 cells were evaluated using the MTT assay. […] The selectivity of the new compounds towards each of the three cancer cell lines was calculated by dividing their IC50 values against normal MRC-5 cells by their IC50 values against the corresponding cancer cell line (Table 3)."}, "[2]": {"system": "MCF-7 cells", "test": "Annexin V-FITC/PI apoptosis assay", "assay_type": "cell-based, human", "details": "0.1 μM, 24 h; for % Cell number, Early apoptosis / % Cell number, Late apoptosis / % Cell number, Live cells / % Cell number, Necrosis: n = 3", "procedure": "The ability of compounds 16a,b,d to induce apoptotic changes in MCF-7 cells was determined by Annexin V-FITC/PI staining according to the previous report[13]^,[18]^,[19]. Additionally, the morphological changes in MCF-7 cells were examined by microscope. Following treatment with the test compounds at 0.1 µM for 24 h, the cells were stained with annexin V and PI. The determination of necrotic, early/late apoptotic changes were performed by flow cytometer (FC500, Beckman Coulter, Miami, FL).\nThe cytotoxic activity of our previously reported pyrrolizine-5-carboxamide 9a was mediated by the induction of apoptosis in MCF-7 cells[13]^,[19]. […] The cancer cells were treated with the test compounds (0.1 μM) for 24 h. The induction of apoptosis in MCF-7 cells by the selected compounds was investigated using annexin V fluorescein isothiocyanate (FITC)/propidium iodide (PI) staining assay. The assay procedures were the same as those applied in the previous report. Compound 16a increased apoptosis (early and late events) in MCF-7 cells to 19% compared to 1% in the control. Moreover, compound 16b caused a significant increase of MCF-7 apoptotic cells which was similar to the effect of compound 16a."}, "[3]": {"system": "MCF-7 cells", "test": "Cell cycle analysis (flow cytometry)", "assay_type": "cell-based, human", "details": "0.1 μM, 24 h", "procedure": "Cell cycle perturbations of MCF-7 cells treated with compounds 16a,b,d at 0.1 µM concentration for 24 h was determined using FC500 flow cytometer (FC500, Beckman Coulter, Miami, FL). The cell cycle analysis was performed according to our previous report.\nBased on the results of the MTT assay (Table 1), compounds 16a,b,d were selected to investigate their effect on cell cycle phases of MCF-7 cells. The cancer cells were treated with the test compounds at 0.1 μM and vehicle (control) for 24 h according to the previous report. Cell cycle analysis was performed using FC500 flow cytometer (FC500, Beckman Coulter, Miami, FL). […] On the other hand, the S phase was the least affected with less than a twofold decrease."}, "[4]": {"target": "T1, CDK-2 (Homo sapiens, UniProt P24941)", "T1 construct": "purchased Promega, Madison, WI", "test": "CDK-2 inhibitory assay (ADP-Glo)", "assay_type": "biochemical", "details": "three determinations, read-out: IC50 (μM) ± SEM CDK-2", "description": "The assay was done according to the manufacturer’s instructions and as described in the previous report[21]."}, "[5]": {"system": "microtubule cytoskeleton of MCF-7 cells", "test": "Immunofluorescence staining of microtubules", "assay_type": "cell-based, human", "details": "5 μM, 24 h"}, "[6]": {"target": "EGFR (Homo sapiens, UniProt P00533)", "sequence (P00533 25-1210)": "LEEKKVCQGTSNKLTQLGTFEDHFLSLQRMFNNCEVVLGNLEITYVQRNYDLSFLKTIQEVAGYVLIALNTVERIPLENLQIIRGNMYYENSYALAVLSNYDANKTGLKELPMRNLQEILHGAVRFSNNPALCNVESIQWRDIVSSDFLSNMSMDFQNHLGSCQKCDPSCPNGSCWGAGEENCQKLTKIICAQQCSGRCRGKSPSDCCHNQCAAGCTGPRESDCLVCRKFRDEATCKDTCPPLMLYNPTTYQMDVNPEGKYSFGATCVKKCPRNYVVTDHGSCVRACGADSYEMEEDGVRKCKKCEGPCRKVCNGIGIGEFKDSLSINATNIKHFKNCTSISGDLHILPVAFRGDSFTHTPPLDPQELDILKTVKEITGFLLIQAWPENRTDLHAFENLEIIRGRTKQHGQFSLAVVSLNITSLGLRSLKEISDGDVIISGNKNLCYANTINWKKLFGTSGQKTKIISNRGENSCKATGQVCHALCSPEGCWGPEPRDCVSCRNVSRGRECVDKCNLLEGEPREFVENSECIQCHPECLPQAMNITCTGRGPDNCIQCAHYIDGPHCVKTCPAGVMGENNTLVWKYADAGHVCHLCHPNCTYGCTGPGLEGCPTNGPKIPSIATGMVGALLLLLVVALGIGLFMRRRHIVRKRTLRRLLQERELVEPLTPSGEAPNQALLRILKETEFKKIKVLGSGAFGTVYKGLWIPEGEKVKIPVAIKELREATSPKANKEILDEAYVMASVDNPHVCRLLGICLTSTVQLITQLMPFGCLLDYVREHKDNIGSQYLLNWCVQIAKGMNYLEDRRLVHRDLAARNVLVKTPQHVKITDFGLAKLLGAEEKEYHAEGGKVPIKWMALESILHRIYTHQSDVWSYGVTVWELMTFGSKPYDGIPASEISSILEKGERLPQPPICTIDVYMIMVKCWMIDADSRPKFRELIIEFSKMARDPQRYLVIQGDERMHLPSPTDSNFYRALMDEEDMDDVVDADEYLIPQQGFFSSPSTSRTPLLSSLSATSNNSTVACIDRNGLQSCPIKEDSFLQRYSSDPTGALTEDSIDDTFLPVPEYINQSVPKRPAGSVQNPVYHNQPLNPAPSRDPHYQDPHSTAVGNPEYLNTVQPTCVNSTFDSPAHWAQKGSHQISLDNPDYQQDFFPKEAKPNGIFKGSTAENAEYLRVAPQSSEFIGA", "test": "Kinase profiling test", "assay_type": "biochemical", "details": "stated as inhibition, read-out: inhibition% against EGFR", "procedure": "The test was performed using the radiolabeled ATP determination method (KINEXUS Bioinformatics Corporation, Vancouver, Canada). The test was performed following the previous reports[13]^,[20].\nThe three compounds were tested at the same concentration (10 μM) against the same 20 kinases used in the previous report. The test was performed by KINEXUS Bioinformatics Corporation (Vancouver, Canada), following previous reports[13]^,[20]."}},
  "note": "Where “and” joins values, the source holds several entries; their conditions need not be identical. Equal values may be shown once.",
  "data": [
    {"smiles": "COc1cc(C(=O)Nc2c(C#N)c3n(c2C(=O)Nc2ccc(Cl)cc2)CCC3)cc(OC)c1OC", "note": "[16d, N-(4-Chlorophenyl)-7-cyano-6-(3,4,5-trimethoxybenzamido) -2,3-dihydro-1H-pyrrolizine-5-carboxamide]", "values": [
      {"measurement": "IC50", "setting": "[1]", "value": "8.1 ± 0.897", "unit": "µM"},
      {"measurement": "% Cell number, Early apoptosis", "setting": "[2]", "value": "7.50 ± 0.95", "unit": "%"},
      {"measurement": "% Cell number, Late apoptosis", "setting": "[2]", "value": "19.94 ± 1.30", "unit": "%"},
      {"measurement": "% Cell number, Live cells", "setting": "[2]", "value": "71.99 ± 2.88", "unit": "%"},
      {"measurement": "% Cell number, Necrosis", "setting": "[2]", "value": "2.51% and 2.51 ± 0.45%"},
      {"measurement": "Cell cycle stage % G1", "setting": "[3]", "value": "5.46 ± 0.87", "unit": "%"},
      {"measurement": "Cell cycle stage % G2/M", "setting": "[3]", "value": "45.62% and 45.62 ± 5.25%"},
      {"measurement": "Cell cycle stage % S", "setting": "[3]", "value": "24.92 ± 2.22", "unit": "%"},
      {"measurement": "Cell cycle stage % preG1", "setting": "[3]", "value": "27.56% and 27.56 ± 3.93%"},
      {"measurement": "IC50", "setting": "[4]", "value": "0.113 ± 0.017", "unit": "µM"}
    ]},
    {"smiles": "COc1cc(C(=O)Nc2c(C#N)c3n(c2C(=O)Nc2ccc(C)cc2)CCC3)cc(OC)c1OC", "note": "[16b, 7-Cyano-N-(p-tolyl)-6-(3,4,5-trimethoxybenzamido)-2,3-dihydro-1H-pyrrolizine-5-carboxamide]", "values": [
      {"measurement": "IC50", "setting": "[1]", "value": "5.85 ± 1.19", "unit": "µM"},
      {"measurement": "% Cell number, Early apoptosis", "setting": "[2]", "value": "6.22 ± 0.22", "unit": "%"},
      {"measurement": "% Cell number, Late apoptosis", "setting": "[2]", "value": "13.01 ± 1.02", "unit": "%"},
      {"measurement": "% Cell number, Live cells", "setting": "[2]", "value": "75.00 ± 2.90", "unit": "%"},
      {"measurement": "% Cell number, Necrosis", "setting": "[2]", "value": "7.11% and 7.11 ± 0.80%"},
      {"measurement": "Cell cycle stage % G1", "setting": "[3]", "value": "13.19 ± 2.95", "unit": "%"},
      {"measurement": "Cell cycle stage % G2/M", "setting": "[3]", "value": "35.35 ± 4.19", "unit": "%"},
      {"measurement": "Cell cycle stage % S", "setting": "[3]", "value": "28.46 ± 2.79", "unit": "%"},
      {"measurement": "Cell cycle stage % preG1", "setting": "[3]", "value": "22.43 ± 2.24", "unit": "%"},
      {"measurement": "IC50", "setting": "[4]", "value": "0.265 ± 0.021", "unit": "µM"},
      {"measurement": "effect on cellular microtubules", "setting": "[5]", "value": "shrank and partially disorganised microtubules which split partially into fragments"},
      {"measurement": "inhibition at 10 µM", "setting": "[6]", "value": 11, "unit": "%"}
    ]},
    {"smiles": "COc1cc(C(=O)Nc2c(C#N)c3n(c2C(=O)Nc2ccccc2)CCC3)cc(OC)c1OC", "note": "[16a, 7-Cyano-N-phenyl-6-(3,4,5-trimethoxybenzamido)-2,3-dihydro-1H-pyrrolizine-5-carboxamide]", "values": [
      {"measurement": "IC50", "setting": "[1]", "value": "0.155 ± 0.062", "unit": "µM"},
      {"measurement": "% Cell number, Early apoptosis", "setting": "[2]", "value": "8.40 ± 0.87", "unit": "%"},
      {"measurement": "% Cell number, Late apoptosis", "setting": "[2]", "value": "10.70 ± 1.06", "unit": "%"},
      {"measurement": "% Cell number, Live cells", "setting": "[2]", "value": "77.40 ± 1.39", "unit": "%"},
      {"measurement": "% Cell number, Necrosis", "setting": "[2]", "value": "3.50% and 3.50 ± 0.37%"},
      {"measurement": "apoptosis (early and late events)", "setting": "[2]; control 1%", "value": 19, "unit": "%"},
      {"measurement": "Cell cycle stage % G1", "setting": "[3]", "value": "10.69 ± 1.32", "unit": "%"},
      {"measurement": "Cell cycle stage % G2/M", "setting": "[3]", "value": "37.38 ± 4.66", "unit": "%"},
      {"measurement": "Cell cycle stage % S", "setting": "[3]", "value": "25.93 ± 3.47", "unit": "%"},
      {"measurement": "Cell cycle stage % preG1", "setting": "[3]", "value": "26.92 ± 3.07", "unit": "%"},
      {"measurement": "IC50", "setting": "[4]", "value": "0.086 ± 0.016", "unit": "µM"},
      {"measurement": "inhibition at 10 µM", "setting": "[6]", "value": 30, "unit": "%"}
    ]}
  ]
}
